Reference: PMC8151276, “An Integrated Approach toward NanoBRET Tracers for Analysis of GPCR Ligand Engagement” (Molecules, 2021)

Tests used:
Assay type in all cases: binding
FSHR = target: T1, FSHR (Homo sapiens, UniProt P23945); assay: NanoBRET screen HiBiT-FSHR in HEK293
T1 construct: purchased Promega (in-house HiBiT-GPCR construct library, NanoBRET)
T1 sequence (P23945 18-695): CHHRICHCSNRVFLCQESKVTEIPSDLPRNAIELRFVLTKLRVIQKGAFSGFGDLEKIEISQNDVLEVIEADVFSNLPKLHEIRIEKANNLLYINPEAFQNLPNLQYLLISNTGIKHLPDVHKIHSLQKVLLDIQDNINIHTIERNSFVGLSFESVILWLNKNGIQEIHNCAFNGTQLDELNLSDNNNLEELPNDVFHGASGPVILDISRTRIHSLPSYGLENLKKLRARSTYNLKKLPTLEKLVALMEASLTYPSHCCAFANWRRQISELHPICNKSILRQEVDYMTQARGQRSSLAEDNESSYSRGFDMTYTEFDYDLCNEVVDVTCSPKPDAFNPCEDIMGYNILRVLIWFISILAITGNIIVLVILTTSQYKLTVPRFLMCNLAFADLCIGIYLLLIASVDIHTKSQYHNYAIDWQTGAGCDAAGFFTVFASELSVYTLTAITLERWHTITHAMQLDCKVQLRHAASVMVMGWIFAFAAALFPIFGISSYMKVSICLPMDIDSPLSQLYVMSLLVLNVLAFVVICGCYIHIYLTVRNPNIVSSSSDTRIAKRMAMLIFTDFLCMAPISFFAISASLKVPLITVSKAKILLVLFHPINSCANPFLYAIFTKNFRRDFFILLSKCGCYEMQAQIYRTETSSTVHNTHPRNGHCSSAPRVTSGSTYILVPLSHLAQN
Description: (§1) Each tracer candidate was screened across the entire library of HiBiT-GPCR constructs using NanoBRET as the detection modality. As depicted in Figure 4A, the specificity of interactions was evaluated through decrease in BRET due to competitive displacement of a bound tracer by excess parental compound. Each tracer was analyzed for binding to each HiBiT-GPCR fusion in the absence and in the presence of competing parental compound. Briefly, HEK293 cells were transfected with HiBiT-GPCR constructs diluted into promoterless DNA to reduce expression and maximize translocation to the cell surface. Each tracer candidate was then screened at concentrations of 1 μM and 0.1 μM across cells expressing these fusions. Cells were treated for 1.5 h with tracer either alone or in the presence of 20 μM competing parental compound (i.e., control). BRET was measured upon addition of purified LgBiT and subsequent complementation with HiBiT genetically fused to a GPCR. The specificity of interactions was assessed through a decrease in BRET signal due to competitive displacement of the bound tracer. To further gauge the robustness of these interactions, the fold response over the control (i.e., BRETtracer/BRETcontrol) was calculated. We chose a 1.5-fold response, which translates to ≥7-fold signal over noise as the minimal threshold required to score an interaction as positive. […]. Below we highlight the screening results obtained for our exemplary fluorescent tracers based on Clozapine, Amitriptyline and AZD1283.
(§2) HiBiT-GPCR DNA constructs were diluted in 10 mM Tris pH 8 to a final concentration of 0.01 μg/μL, arrayed in 96-well plates and stored at −20 °C. For transfection, HEK293 cells were suspended in Opti-MEM (without phenol red) supplemented with 2% fetal bovine serum (Seradigm) and 100 units/mL penicillin–streptomycin (Gibco) at a final concentration of 220,000 cells/mL and dispensed into white 96-well plates at 90 μL/well. Subsequent transfections and screens were carried using an Agilent Bravo Automated Liquid Handling Platform. First, the 96-well HiBiT DNA arrays were diluted 25-fold in Opti-MEM (without serum or phenol red) to a final concentration of 0.0004 μg/μL and 20 μL of the diluted DNAs were transferred into new 96-well plates. Next, promoterless carrier DNA (1 μg/μL) was diluted 25-fold (0.04 μg/μL) and then dispensed into the diluted arrays at 20 μL/well. Following brief mixing, Viafect transfection reagent (Promega) diluted 16-fold into Opti-MEM was dispensed into the plates at 40 μL/well. After mixing by pipetting, plates were incubated for 10 min on the pipetting station deck. The DNA-transfection reagent complexes were then added to plates containing cells. To facilitate the screen, 10 μL of DNA-transfection reagent complexes were added in duplicates to the top 4 and bottom 4 rows, resulting in two identical 48-well arrays per plate. Plates with transfected cells were incubated for 18–20 h at 37 °C/5% CO2. A screen of each tracer across the entire library using two different concentrations requires duplicate plates of transfected cells. Depending on the number of tracers being screened, transfections can be scaled up using the same ratios. The next day, for each tracer, four 20× screening solutions in tracer dilution buffer (Promega) were prepared: two duplicates at final concentration of 20 μM and two duplicates at a final concentration of 2 μM. A competing unmodified compound was added to one of each duplicate at a final concentration of 400 μM. The four resulting solutions were diluted 4-fold in Opti-MEM without serum or phenol red to generate 5× solutions (5 µM and 0.5 µM tracer +/− 100 μM competing compound). To screen the library, a BioTek MultiFlo FX liquid dispenser was used to dispense 22.5 µL of tracer solution to the top 4 rows and 22.5 µL tracer + competing compound solution to the 4 bottom rows. Plates were briefly mixed on an orbital shaker and incubated for 1.5 h at room temperature. […]

SSTR5 = target: T2, SSTR5 (Homo sapiens, UniProt P35346); assay: NanoBRET screen HiBiT-SSTR5 in HEK293
T2 construct: purchased Promega (in-house HiBiT-GPCR construct library, NanoBRET)
T2 sequence (P35346 whole entry): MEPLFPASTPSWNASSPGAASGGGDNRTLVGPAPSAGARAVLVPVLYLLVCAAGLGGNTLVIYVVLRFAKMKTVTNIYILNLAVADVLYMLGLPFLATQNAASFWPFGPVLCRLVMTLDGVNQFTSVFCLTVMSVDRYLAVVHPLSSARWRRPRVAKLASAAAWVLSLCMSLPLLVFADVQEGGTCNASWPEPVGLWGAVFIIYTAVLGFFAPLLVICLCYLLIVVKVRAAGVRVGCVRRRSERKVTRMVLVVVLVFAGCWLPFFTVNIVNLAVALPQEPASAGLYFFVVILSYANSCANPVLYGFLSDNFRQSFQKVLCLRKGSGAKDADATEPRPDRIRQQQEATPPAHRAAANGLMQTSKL
Description: as §1, §2

LHCGR = target: T3, LHCGR (Homo sapiens, UniProt P22888); assay: NanoBRET screen HiBiT-LHCGR in HEK293
T3 construct: purchased Promega (in-house HiBiT-GPCR construct library, NanoBRET)
T3 sequence (P22888 27-699): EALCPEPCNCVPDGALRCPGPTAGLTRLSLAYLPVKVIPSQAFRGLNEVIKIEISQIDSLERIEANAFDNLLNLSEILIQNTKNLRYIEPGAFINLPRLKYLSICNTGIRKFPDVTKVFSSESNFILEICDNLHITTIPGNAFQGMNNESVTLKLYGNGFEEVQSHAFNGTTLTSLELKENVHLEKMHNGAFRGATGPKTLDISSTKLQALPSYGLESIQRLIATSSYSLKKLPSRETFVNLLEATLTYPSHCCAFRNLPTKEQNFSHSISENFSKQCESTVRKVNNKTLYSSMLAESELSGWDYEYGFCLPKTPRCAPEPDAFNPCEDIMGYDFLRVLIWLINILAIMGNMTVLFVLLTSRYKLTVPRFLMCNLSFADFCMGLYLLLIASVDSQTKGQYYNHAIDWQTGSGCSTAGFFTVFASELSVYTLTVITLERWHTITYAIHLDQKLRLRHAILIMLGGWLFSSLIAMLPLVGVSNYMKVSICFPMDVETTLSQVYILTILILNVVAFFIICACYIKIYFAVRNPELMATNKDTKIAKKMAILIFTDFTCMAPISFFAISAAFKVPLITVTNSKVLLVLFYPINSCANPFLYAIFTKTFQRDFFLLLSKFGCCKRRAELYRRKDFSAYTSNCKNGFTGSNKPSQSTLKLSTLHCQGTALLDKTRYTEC
Description: as §1, §2

[1] = tracer at 0.1μM, listed as amitriptyline-b-2-NB590

CCOC(=O)c1cc(C#N)c(N2CCC(C(=O)NS(=O)(=O)Cc3ccccc3/C=C/C(=O)NCCNC(=O)CCc3ccc4n3[B-](F)(F)[N+]3=C(c5ccc[nH]5)C=CC3=C4)CC2)nc1C [AZD1283-1-NB590]
NanoBRET Fold Response (FSHR; FSHR, 0.1μM): 0.99
NanoBRET Fold Response (FSHR; FSHR, 1μM): 1.03
NanoBRET Fold Response (SSTR5; SSTR5, 0.1μM): 1.09
NanoBRET Fold Response (SSTR5; SSTR5, 1μM): 1.05
NanoBRET Fold Response (LHCGR; LHCGR, 0.1μM): 1.00
NanoBRET Fold Response (LHCGR; LHCGR, 1μM): 1.02

N#CN=C(NCCCOc1cccc(CN2CCCCC2)c1)NCCNC(=O)CCOCCOCCOCCOCCNC(=O)CCc1ccc2n1[B-](F)(F)[N+]1=C(c3ccc[nH]3)C=CC1=C2 [Aminopotentidine-2-NB590]
NanoBRET Fold Response (FSHR; FSHR, tracer 0.1μM): 0.99
NanoBRET Fold Response (FSHR; FSHR, tracer 1μM): 1.06
NanoBRET Fold Response (SSTR5; SSTR5, tracer 0.1μM): 0.97
NanoBRET Fold Response (SSTR5; SSTR5, tracer 1μM): 1.00
NanoBRET Fold Response (LHCGR; LHCGR, tracer 0.1μM): 1.03
NanoBRET Fold Response (LHCGR; LHCGR, tracer 1μM): 1.00

CN(C)CCC=C1c2ccccc2CCc2ccc(C(=O)NCCNC(=O)CCOCCOCCOCCOCCNC(=O)CCc3ccc4n3[B-](F)(F)[N+]3=C(c5ccc[nH]5)C=CC3=C4)cc21 [Amitriptyline-a-2-NB590]
NanoBRET Fold Response (FSHR; tracer at 0.1μM): 1.02
NanoBRET Fold Response (FSHR; tracer at 1μM): 1.06
NanoBRET Fold Response (SSTR5; tracer at 0.1μM): 1.00
NanoBRET Fold Response (SSTR5; tracer at 1μM): 1.05

CN(C)CCC=C1c2ccccc2CCc2ccc(C(=O)NCCNC(=O)CCOCCOCCOCCOCCNC(=O)CCc3ccc4n3[B-](F)(F)[N+]3=C(c5ccc[nH]5)C=CC3=C4)cc21 [Amitriptyline-b-2-NB590]
NanoBRET Fold Response (FSHR; [1]): 1.13
NanoBRET Fold Response (FSHR; tracer at 1μM, listed as amitriptyline-b-2-NB590): 0.96
NanoBRET Fold Response (SSTR5; [1]): 0.96
NanoBRET Fold Response (SSTR5; tracer at 1μM): 0.97
NanoBRET Fold Response (LHCGR; LHCGR, tracer 0.1μM): 1.05
NanoBRET Fold Response (LHCGR; LHCGR, tracer 1μM): 1.00

COc1ccc2c(n1)c(CCNC(C)=O)cn2CCNC(=O)CCc1ccc2n1[B-](F)(F)[N+]1=C(c3ccc[nH]3)C=CC1=C2 [Azamelatonin-1-NB590]
NanoBRET Fold Response (FSHR; 0.1μM tracer): 1.08
NanoBRET Fold Response (FSHR; 1μM tracer): 1.08
NanoBRET Fold Response (SSTR5; 0.1μM tracer): 0.82
NanoBRET Fold Response (SSTR5; 1μM tracer): 0.99
NanoBRET Fold Response (LHCGR; 0.1μM tracer): 1.03
NanoBRET Fold Response (LHCGR; 1μM tracer): 1.05

COc1ccc2[nH]c(-c3ccc(CNC(=O)CCOCCOCCOCCOCCNC(=O)CCc4ccc5n4[B-](F)(F)[N+]4=C(c6ccc[nH]6)C=CC4=C5)cc3)c(CCNC(C)=O)c2n1 [AzomelatoninICO9-2-NB590]
NanoBRET Fold Response (FSHR; 0.1μM tracer): 1.32
NanoBRET Fold Response (FSHR; 1μM tracer): 1.02
NanoBRET Fold Response (SSTR5; 0.1μM tracer): 1.01
NanoBRET Fold Response (SSTR5; 1μM tracer): 1.01
NanoBRET Fold Response (LHCGR; 0.1μM tracer): 1.01
NanoBRET Fold Response (LHCGR; 1μM tracer): 0.88

O=C(CCOCCOCCOCCOCCNC(=O)CCc1ccc2n1[B-](F)(F)[N+]1=C(c3ccc[nH]3)C=CC1=C2)NCCCN1CCN(C2=Nc3cc(Cl)ccc3Nc3ccccc32)CC1 [Clozapine-a-2-NB590]
NanoBRET Fold Response (FSHR; FSHR, 0.1μM tracer): 0.99
NanoBRET Fold Response (FSHR; FSHR, 1μM tracer): 1.32
NanoBRET Fold Response (SSTR5; SSTR5, 0.1μM tracer): 0.97
NanoBRET Fold Response (SSTR5; SSTR5, 1μM tracer): 1.00
NanoBRET Fold Response (LHCGR; LHCGR, 0.1μM tracer): 0.93
NanoBRET Fold Response (LHCGR; LHCGR, 1μM tracer): 1.05
